Laboratory results published in US9808434B2, “Compound for treating cancer and diabetes” (CITY OF HOPE, priority 2011, dated 2017).
pIC50: −log10 of the molar value.

Key:
[1] = tested on: human melanoma cells (SK-MEL28, A2058, A101D); experiment: Oxygen consumption rate in melanoma cells, Seahorse; assay type: cell-based; settings: 1-10 μM, monitored 2 h
Experimental: (§1) Oxygen consumption rate (OCR), a measure of OxPhos, and extracellular acidification rate (ECAR), a measure of lactate production by glycolysis, were measured using a Seahorse Xf^e96 Flux Analyzers (Seahorse Biosciences, North Billerica, Mass.). Cells were seeded in DMEM media in Seahorse 96-well tissue culture plates at a density of 5×10^3 cells/well and allowed to adhere for 24 h. Prior to the assay, the media was changed to unbuffered DMEM containing 25 mM glucose, 1 mM pyruvate and 1 mM glutamine, with 0.2% fatty acid/endotoxin-free BSA (w/v) (pH 7.4) and the cells were equilibrated for 30 min at 37° C. Test compounds were injected during the assay and OCR and ECAR were measured using 2-3 min measurement periods. […] OCR was measured throughout the different injections of the stressors and test compounds (indicated by arrows in the figures).
The importance of mitochondria as oxygen sensors as well as producers of ATP and ROS has recently become a focal point of cancer research. […] OCR was continuously monitored for 2 h. Mitochondria recoupler 6-KCH (200 μM) was added to the assay system prior to injection of COH-SR4 (5 μM) as shown by arrows and OCR of A101D cells were monitored (FIG. 37B). […]

[2] = tested on: A2058 p^0 cells; experiment: Oxygen consumption rate in mitochondrial DNA-depleted cells; assay type: cell-based, human; settings: compared with wild-type A2058; data not shown
Experimental: as §1, with “periods. Similar sets of experiments were performed in the presence of the mitochondria recoupler agent 6-KCH or the mitochondrial permeability transition (MPT) pore blocker CSA, where each compound was injected into the assay media prior to COH-SR4 or FCCP injection.” for “periods.”
To verify that COH-SR4 acts directly on mitochondrial respiration, OCR in mitochondrial DNA-depleted (p^0) A2058 cells was measured, as well as freshly isolated mouse liver mitochondria and treated with either COH-SR4 or FCCP.

[3] = tested on: A2058 cells; experiment: Mitochondrial membrane depolarization, TMRE; assay type: cell-based, human; settings: 5 μM
Experimental: Cells (4×10^5/well in 6-well plates) cultured overnight were pre-incubated with the fluorescent indicator of MMP tetramethylrhodamine ester (TMRE, 200 nM) or DMSO control for 30 min at 37° C. in CO2 incubator. Cells were washed with pre-warmed normal DMEM media, and test compounds were added with fresh media for the indicated times. Cells were then trypsinized, collected, centrifuged for 5 min at 800×g, and washed once in pre-warmed PBS-0.2% BSA. Cells were then resuspended in the same buffer prior to flow cytometric analysis. A total of 30,000 cells were counted per sample and data was analyzed by Cyan ADP flow cytometer with excitation/emission of 488 nm/572 nm (Beckman Coulter, Inc., Brea, Calif.). For measurements of membrane potential in isolated mouse liver mitochondria, the organelles were pre-incubated with 200 nM TMRE in MASSRO buffer (MAS buffer supplemented with 10 mM succinate, 1 μM rotenone, and 1 μM oligomycin) for 20 min at 25° C. The mitochondria were centrifuged for 5 min at 3000×g and resuspended in MASSRO buffer. Mitochondria were then added to MASSRO buffer containing the indicated concentrations of COH-SR4, FCCP or DMSO vehicle control and incubated at room temperature for 15 min. […] TMRE fluorescence was measured with a microplate reader (Tecan Infinite M200 Pro, Tecan Group Ltd., Switzerland) using an excitation emission of 545ex/580em. […]

[4] = tested on: HepG2 liver carcinoma cells; experiment: Intracellular AMP:ATP ratio in HepG2; assay type: cell-based, human; settings: 5 μM, 1 h
Experimental: ATP production from cells treated with test compounds were measured using the Luminescent ATP Detection Assay Kit. AMP, ATP and ADP were measured by UV-HPLC.
Total intracellular ATP production in cells treated with either 5 μM COH-SR4 or 5 μM FCCP was measured by bioluminescence assay and expressed as percentage of time-matched vehicle (DMSO) control (FIG. 84A). Intracellular AMP: ATP ratios increased in HepG2 liver carcinoma cells following 1 h treatment with either 5 μM COH-SR4 or 5 μM FCCP (FIG. 84B) and in liver of db/db mice treated with COH-SR4 (5 mg/kg B.W.) for 5 weeks (FIG. 84C). All data represented are mean±SEM, *P<0.05.

[5] = tested on: isolated mouse liver mitochondria; experiment: Oxygen consumption rate in isolated liver mitochondria; settings: increasing concentrations
Experimental: Mitochondria were isolated from the livers of 10 week old male C57BL/6 mice. Mice were euthanized by CO2 inhalation followed by cervical dislocation. Livers were removed, minced with scissors, and immediately placed in ˜10 volumes of ice-cold mitochondria isolation medium (250 mM sucrose, 10 mM Tris-HCl, 1 mM EGTA, 1% fatty acid/endotoxin-free BSA, pH 7.4). The presence of BSA in the medium allowed the endogenous free fatty acids to be chelated from the homogenate suspension. The tissues were homogenized using 25-30 strokes in Potter-Elvehjem tissue grinder. Following centrifugation at 800×g for 10 min at 4° C., the fats/lipids were carefully aspirated, and the remaining supernatant was filtered through sterile 0.40 micron nylon mesh membrane and centrifuged at 8,000×g for 10 min at 4° C. […] The mitochondrial protein concentration was determined by the DC Protein Assay kit (Bio-Rad, Hercules, Calif.) with BSA as a standard. […]
Isolated mouse liver mitochondria (2 μg/well or 5 μg/well) were seeded on Seahorse 96-well plate, and respiration (OCR) was measured on mitochondria respiring either on pyruvate (10 mM) and malate (2 mM) or succinate (10 mM) and rotenone (2 μM) using a Seahorse 96 Flux Analyzers according to Rogers et al (90).

[6] = tested on: isolated mouse liver mitochondria; experiment: Mitochondrial swelling assay; settings: potassium acetate buffer with valinomycin
Experimental: Mitochondrial swelling was measured in non-respiring mouse liver mitochondria incubated in buffered isotonic potassium acetate in the presence of valinomycin (24,25). […] Absorbance of the mitochondrial suspension before and after addition test compounds was measured every 10 seconds using a Varian Cary 300 spectrophotometer (Agilent Technologies, Santa Clara, Calif.). Swelling was recorded from the decrease in absorbance at 600 nm and expressed as percentage from initial reading after addition of mitochondria.
Mitochondrial membrane swelling was detected as decrease in absorbance at 600 nm following the addition of COH-SR4 or FCCP alone or in the presence of cysclosporin A (CSA, 1 μM) on isolated mouse liver mitochondria respiring on succinate (10 mM) in the presence of rotenone (1 μM) and valinomycin (5 μM) in potassium acetate buffer. […] Arrow indicates time of addition of test compounds into the mitochondria suspension.

[7] = tested on: melanoma cells; experiment: MTT assay, melanoma cell lines of various mutational status; assay type: cell-based; settings: 48 h, regardless of mutational status; read-out: IC50 values across melanoma cell lines
Experimental: Cell density measurements were performed using a hemocytometer to count reproductive cells resistant to staining with trypan blue. Approximately 20,000 cells were plated into each well of 96-well flat-bottomed micro-titer plates. After 12 h or 24 h incubation at 37° C., medium containing either COH-SR4 (ranging 0-200 μM) or elesclomol (ranging 0-20 μM) were added to the cells. After 24 h, 48 h or 96 h incubation, 20 μL of 5 mg/mL MTT were introduced to each well and incubated for 2 h. The plates were centrifuged and medium was decanted. Cells were subsequently dissolved in 100 μl DMSO with gentle shaking for 2 h at room temperature, followed by measurement of OD570 (91).

[8] = tested on: B16-F0 and A2058 melanoma cells; experiment: TUNEL apoptosis assay, melanoma; assay type: cell-based; settings: 5 μM, 24 h
Experimental: For TUNEL assay, 1×10^5 cells were grown on the cover slips for ˜12 h followed by treatment with COH-SR4 (5 μM or 10 μM) or elesclomol (5 μM) for 24 h. Apoptosis was determined by the labeling of DNA fragments with terminal deoxynucleotidyl-transferase dUTP nick-end labeling (TUNEL) assay using Promega fluorescence apoptosis detection system, and examined using Zeiss LSM 510 META laser scanning fluorescence microscope with filters 520 and 620 nm according to the protocol described previously (91). Photographs taken at identical exposure at ×400 magnification are presented.

[9] = tested on: melanoma cells; experiment: Colony formation assay, melanoma cells (elesclomol); assay type: cell-based, human; settings: 5 μM, compared to COH-SR4
Experimental: Cell survival was evaluated using a standard colony-forming assay. In total, 1×10^5 cells/mL were incubated with COH-SR4 (1.5 μM or 5 μM) or elesclomol (5 μM) for 24 h, and aliquots of 50 or 100 μL were added to 60 mm size petri dishes, containing 4 mL culture medium. After 7 or 10 days, adherent colonies were fixed, stained with 0.5% methylene blue for 30 min and colonies were counted using the Innotech Alpha Imager HP (91).

pIC50 [7] | Structure (SMILES) | oxygen consumption rate (OCR) [1] | OCR in mitochondrial DNA-depleted cells [2] | mitochondrial membrane depolarization (TMRE fluorescence) [3] | intracellular AMP:ATP ratios [4] | OCR of mitochondria respiring on pyruvate and malate or succinate-rotenone [5] | mitochondrial swelling (absorbance at 600 nm) [6] | apoptosis (DNA fragmentation, TUNEL) [8] | colony forming ability of melanoma cells [9]
 | N#CC(C#N)=NNc1ccc(OC(F)(F)F)cc1 [FCCP, reference compound] | caused an abrupt increase in OCR at the lower concentration and decreases OCR at higher (>3 μM) concentrations | failed to increase OCR | induced mitochondrial membrane depolarization in a time-dependent manner | increased | dose-dependently increased OCR of mitochondria | mitochondrial swelling was observed |  | 
≤ 5.24 | CN(NC(=O)CC(=O)NN(C)C(=S)c1ccccc1)C(=S)c1ccccc1 [elesclomol, reference compound] |  |  |  |  |  |  | not potent | did not significantly affect the colony forming ability
